Paper PMC1871596, “Requirement of aggregation propensity of Alzheimer amyloid peptides for neuronal cell surface binding” (BMC Neuroscience, 2007)

Legend:
[1] = unlabelled mutant; cited from earlier work
From the text: We also studied a double mutant (F19S/L34P) of Aβ42 (hereon referred to as 'mutant peptide'), which was discovered through a GFP-based screen for mutations that reduce the aggregation p ...

[2] = tested on: NGF differentiated PC12 cells; assay: Blocking the binding of Aβ42 to the surface of live PC12 cells (flow cytometry); assay type: cell-based, rat; details: cells pre-treated with the reagent, then TMR-labelled Aβ42 1.5 μM for 1-2 hours, trypsin 10 μg/mL 15 min then SBTI, Figure 6A
Procedure: NGF differentiated PC12 cells treated with Aβ (1.5 μM) were washed once with cold D-PBS, followed by mechanical detachment with D-PBS. Collected cells were centrifuged (200 × g for 1 minute) and resuspended in cold flow buffer containing 5 mM EDTA and 1% BSA (Fisher Scientific, Nepean, ON) in D-PBS. Samples were immediately analyzed with a FACS Calibur flow cytometer (Becton Dickinson, Mississauga, ON). TMR-labelled samples were detected with 585/42 filter collecting 5 × 10^4 events per sample using 100–300 events/s flow rate. Cell viability was assessed with 25 μg/mL 7-Aminoactinomycin D (7-AAD) treatment for 5 minutes and detected with a long pass 650 nm filter. Data collection and analysis were performed using Cell Quest version 3.3 and figures were created using WinMDI version 2.8 software.
Various treatments to block or remove lipid, carbohydrate, or protein components from the surface of live PC12 cells were performed and their effects on Aβ binding was examined. NGF differentiated PC12 cells were treated with 100 ng/mL FITC labelled annexin V (to block negatively charged phospholipids) or 10 μg/mL FITC labelled cholera toxin subunit B (to block GM1 ganglioside) for 20 minutes before addition of Aβ42 (final concentration 1.5 μM) for two hours. […] After Aβ42 addition, treated cells and untreated control cells were analyzed using flow cytometry.

Molecule	aggregation state of the mutant [1]	effect of cell surface treatment on Aβ42 binding [2]
DAEFRHDSGYEVHHQKLVSFAEDVGSNKGAIIGPMVGGVVIA [double mutant (F19S/L34P) of Aβ42, double mutant (F19S/L34P) of Aβ42 with reduced aggregation propensity, unlabelled]	soluble unstructured monomeric peptide	
trypsin: protease (9590 units/mg) used to remove cell surface proteins from PC12 cells (protein, UniProt P00760 24-246, looked up) Serine protease 1: IVGGYTCGANTVPYQVSLNSGYHFCGGSLINSQWVVSAAHCYKSGIQVRLGEDNINVVEGNEQFISASKSIVHPSYNSNTLNNDIMLIKLKSAASLNSRVASISLPTSCASAGTQCLISGWGNTKSSGTSYPDVLKCLKAPILSDSSCKSAYPGQITSNMFCAGYLEGGKDSCQGDSGGPVVCSGKLQGIVSWGSGCAQKNKPGVYTKVCNYVSWIKQTIASN		significantly decreased
